{
  "source": "PubChem BioAssay AID1845206",
  "about": "(Molecular Pharmacology Branch, DTP, NCI, 2023)",
  "system": "NCI-H1618 multicellular tumor spheroid viability",
  "assay": "Anticancer human tumor NCI-H1618 cell line growth inhibition;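 note: spheroids exposed to agents for 7 days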",
  "conditions": "for IC50: curve of first compound; for viability, T/C: stronger effect = lower value",
  "method_in_brief": "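Complex tumor spheroids combined malignant cells with endothelial cells and mesenchymal stem cells. DNA-damaging drugs and DNA repair inhibitors were tested alone and in combination, at half-log dilutions down from clinical Cmax (top 10 microM if Cmax unknown), 0.25% DMSO final.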",
  "note": "The source made the active and inactive calls. Rule for the calls: active = viability on the fitted dose curve at most 10% of control; inactive = the rest.",
  "data": [
    {"smiles": "CC(C)n1c(=O)n(C)c2cnc3cc(F)c(-c4ccc(OCCCN5CCCCC5)nc4)cc3c21", "note": "+ Cn1nnc2c(C(N)=O)ncn2c1=O", "values": [
      {"measurement": "IC50", "setting": "second compound 1 µM", "value": "> 10", "unit": "µM"},
      {"measurement": "IC50", "setting": "second compound 3.16 µM", "value": "< 0.0316", "unit": "µM"},
      {"measurement": "IC50", "setting": "second compound 10 µM", "value": "< 0.0316", "unit": "µM"},
      {"measurement": "IC50", "setting": "second compound 31.6 µM", "value": "< 0.0316", "unit": "µM"},
      {"measurement": "IC50", "setting": "second compound 100 µM", "value": 4.44, "unit": "µM"},
      {"measurement": "viability, T/C", "setting": "second compound 1 µM, first compound 0.0316 µM", "value": 82.9, "unit": "%"},
      {"measurement": "outcome", "setting": "second compound 1 µM, first compound 0.1 µM", "value": "inactive"},
      {"measurement": "outcome", "setting": "second compound 1 µM, first compound 0.316 µM", "value": "inactive"},
      {"measurement": "viability, T/C", "setting": "second compound 1 µM, first compound 1 µM", "value": 86.7, "unit": "%"},
      {"measurement": "viability, T/C", "setting": "second compound 1 µM, first compound 3.16 µM", "value": 78.4, "unit": "%"},
      {"measurement": "viability, T/C", "setting": "second compound 1 µM, first compound 10 µM", "value": 69, "unit": "%"},
      {"measurement": "viability, T/C", "setting": "second compound 3.16 µM, first compound 0.0316 µM", "value": 20.5, "unit": "%"},
      {"measurement": "viability, T/C", "setting": "second compound 3.16 µM, first compound 0.1 µM", "value": 16.2, "unit": "%"},
      {"measurement": "viability, T/C", "setting": "second compound 3.16 µM, first compound 0.316 µM", "value": 25.4, "unit": "%"},
      {"measurement": "viability, T/C", "setting": "second compound 3.16 µM, first compound 1 µM", "value": 22.2, "unit": "%"},
      {"measurement": "viability, T/C", "setting": "second compound 3.16 µM, first compound 3.16 µM", "value": 8.21, "unit": "%"},
      {"measurement": "viability, T/C", "setting": "second compound 3.16 µM, first compound 10 µM", "value": 14.4, "unit": "%"},
      {"measurement": "viability, T/C", "setting": "second compound 10 µM, first compound 0.0316 µM", "value": 12.6, "unit": "%"},
      {"measurement": "viability, T/C", "setting": "second compound 10 µM, first compound 0.1 µM", "value": 2.97, "unit": "%"},
      {"measurement": "viability, T/C", "setting": "second compound 10 µM, first compound 0.316 µM", "value": 8.79, "unit": "%"},
      {"measurement": "viability, T/C", "setting": "second compound 10 µM, first compound 1 µM", "value": 11.4, "unit": "%"},
      {"measurement": "viability, T/C", "setting": "second compound 10 µM, first compound 3.16 µM", "value": 19.9, "unit": "%"},
      {"measurement": "viability, T/C", "setting": "second compound 10 µM, first compound 10 µM", "value": 5.34, "unit": "%"},
      {"measurement": "viability, T/C", "setting": "second compound 31.6 µM, first compound 0.0316 µM", "value": 9.31, "unit": "%"},
      {"measurement": "viability, T/C", "setting": "second compound 31.6 µM, first compound 0.1 µM", "value": 17.1, "unit": "%"},
      {"measurement": "viability, T/C", "setting": "second compound 31.6 µM, first compound 0.316 µM", "value": 12.9, "unit": "%"},
      {"measurement": "viability, T/C", "setting": "second compound 31.6 µM, first compound 1 µM", "value": 11.6, "unit": "%"},
      {"measurement": "viability, T/C", "setting": "second compound 31.6 µM, first compound 3.16 µM", "value": 23, "unit": "%"},
      {"measurement": "viability, T/C", "setting": "second compound 31.6 µM, first compound 10 µM", "value": 6.81, "unit": "%"},
      {"measurement": "viability, T/C", "setting": "second compound 100 µM, first compound 0.0316 µM", "value": 57.3, "unit": "%"},
      {"measurement": "viability, T/C", "setting": "second compound 100 µM, first compound 0.1 µM", "value": 68.8, "unit": "%"},
      {"measurement": "viability, T/C", "setting": "second compound 100 µM, first compound 0.316 µM", "value": 52, "unit": "%"},
      {"measurement": "viability, T/C", "setting": "second compound 100 µM, first compound 1 µM", "value": 67.2, "unit": "%"},
      {"measurement": "viability, T/C", "setting": "second compound 100 µM, first compound 3.16 µM", "value": 57.6, "unit": "%"},
      {"measurement": "viability, T/C", "setting": "second compound 100 µM, first compound 10 µM", "value": 29.9, "unit": "%"}
    ]}
  ]
}
